From patent US20240308996A1, “PYRIDOPYRIDINES AND DERIVATIVES THEREOF AS SELECTIVE KINASE INHIBITORS” (University of Sharjah, priority 2023, published 2024)
One block for each molecule: values may come before it.

Experiments:
[1] = tested on: MDA-MB-468; assay: NCI-60 cell line panel: MDA-MB-468; type: cell-based; settings: Breast Cancer, total growth inhibition
Experimental: (§1) It was carried out at the NCI, Bethesda, MD, USA, utilizing their standard protocol.

[2] = tested on: HS 578T; assay: NCI-60 cell line panel: HS 578T; type: cell-based; settings: Breast Cancer, HS 578T; total growth inhibition
Experimental: as §1

[3] = tested on: NCI-H226; assay: NCI-60 cell line panel: NCI-H226; type: cell-based; settings: Non-Small Cell Lung Cancer
Experimental: as §1

[4] = tested on: OVCAR-8; assay: NCI-60 cell line panel: OVCAR-8; type: cell-based; settings: Ovarian Cancer, total growth inhibition, in µM (unit assumed)
Experimental: as §1

[5] = tested on: SF-268; assay: NCI-60 cell line panel: SF-268; type: cell-based; settings: CNS Cancer, total growth inhibition
Experimental: as §1

[6] = tested on: MALME-3M; assay: NCI-60 cell line panel: MALME-3M; type: cell-based; settings: Melanoma
Experimental: as §1

[7] = tested on: BT-549; assay: NCI-60 cell line panel: BT-549; type: cell-based; settings: Breast Cancer, total growth inhibition
Experimental: as §1

[8] = tested on: SK-MEL-2; assay: NCI-60 cell line panel: SK-MEL-2; type: cell-based; parameters: TGI: unit not given here; settings: Melanoma
Experimental: as §1

[9] = tested on: NCI-H23; assay: NCI-60 cell line panel: NCI-H23; type: cell-based; settings: Non-Small Cell Lung Cancer
Experimental: as §1

[10] = tested on: NCI/ADR-RES; assay: NCI-60 cell line panel: NCI/ADR-RES; type: cell-based; parameters: TGI: unit not given here; settings: Ovarian Cancer, total growth inhibition
Experimental: as §1

[11] = tested on: NCI-H460; assay: NCI-60 cell line panel: NCI-H460; type: cell-based; settings: Non-Small Cell Lung Cancer, total growth inhibition
Experimental: as §1

[12] = tested on: MCF7; assay: NCI-60 cell line panel: MCF7; type: cell-based; settings: Breast Cancer, total growth inhibition
Experimental: as §1

[13] = tested on: NCI-H322M; assay: NCI-60 cell line panel: NCI-H322M; type: cell-based; settings: Non-Small Cell Lung Cancer, total growth inhibition
Experimental: as §1

[14] = tested on: ACHN; assay: NCI-60 cell line panel: ACHN; type: cell-based; settings: Renal Cancer, total growth inhibition
Experimental: as §1

[15] = tested on: UO-31; assay: NCI-60 cell line panel: UO-31; type: cell-based; parameters: TGI: unit not given here; settings: Renal Cancer, total growth inhibition
Experimental: as §1

[16] = tested on: SW-620; assay: NCI-60 cell line panel: SW-620; type: cell-based; settings: Colon Cancer, total growth inhibition
Experimental: as §1

[17] = tested on: CAKI-1; assay: NCI-60 cell line panel: CAKI-1; type: cell-based; parameters: TGI: unit not given here; settings: Renal Cancer, total growth inhibition
Experimental: as §1

[18] = tested on: CCRF-CEM; assay: NCI-60 cell line panel: CCRF-CEM; type: cell-based; settings: Leukemia
Experimental: as §1

[19] = tested on: RXF 393; assay: NCI-60 cell line panel: RXF 393; type: cell-based; settings: Renal Cancer, total growth inhibition
Experimental: as §1

[20] = tested on: SR; assay: NCI-60 cell line panel: SR; type: cell-based; settings: Leukemia, total growth inhibition
Experimental: as §1

[21] = tested on: SK-OV-3; assay: NCI-60 cell line panel: SK-OV-3; type: cell-based; settings: Ovarian Cancer, total growth inhibition
Experimental: as §1

[22] = tested on: HOP-62; assay: NCI-60 cell line panel: HOP-62; type: cell-based; settings: Non-Small Cell Lung Cancer
Experimental: as §1

[23] = tested on: TK-10; assay: NCI-60 cell line panel: TK-10; type: cell-based; settings: Renal Cancer
Experimental: as §1

[24] = tested on: SN12C; assay: NCI-60 cell line panel: SN12C; type: cell-based; settings: Renal Cancer, total growth inhibition
Experimental: as §1

[25] = tested on: OVCAR-5; assay: NCI-60 cell line panel: OVCAR-5; type: cell-based; settings: Ovarian Cancer, total growth inhibition
Experimental: as §1

[26] = tested on: A549/ATCC; assay: NCI-60 cell line panel: A549/ATCC; type: cell-based; settings: Non-Small Cell Lung Cancer, total growth inhibition
Experimental: as §1

[27] = tested on: PC-3; assay: NCI-60 cell line panel: PC-3; type: cell-based; settings: Prostate Cancer
Experimental: as §1

[28] = tested on: SK-MEL-28; assay: NCI-60 cell line panel: SK-MEL-28; type: cell-based; settings: Melanoma, total growth inhibition
Experimental: as §1

[29] = tested on: EKVX; assay: NCI-60 cell line panel: EKVX; type: cell-based; settings: Non-Small Cell Lung Cancer, total growth inhibition, in µM (unit assumed)
Experimental: as §1

[30] = tested on: UACC-257; assay: NCI-60 cell line panel: UACC-257; type: cell-based; settings: Melanoma
Experimental: as §1

[31] = tested on: MDA-MB-231/ATCC; assay: NCI-60 cell line panel: MDA-MB-231/ATCC; type: cell-based; settings: Breast Cancer
Experimental: as §1

[32] = tested on: HCT-15; assay: NCI-60 cell line panel: HCT-15; type: cell-based; settings: Colon Cancer, total growth inhibition
Experimental: as §1

[33] = tested on: DU-145; assay: NCI-60 cell line panel: DU-145; type: cell-based; settings: Prostate Cancer, total growth inhibition
Experimental: as §1

[34] = tested on: A498; assay: NCI-60 cell line panel: A498; type: cell-based; settings: Renal Cancer, total growth inhibition
Experimental: as §1

[35] = tested on: OVCAR-3; assay: NCI-60 cell line panel: OVCAR-3; type: cell-based; settings: Ovarian Cancer, total growth inhibition
Experimental: as §1

[36] = tested on: SNB-75; assay: NCI-60 cell line panel: SNB-75; type: cell-based; parameters: TGI: unit not given here; settings: CNS Cancer, total growth inhibition
Experimental: as §1

[37] = tested on: COLO 205; assay: NCI-60 cell line panel: COLO 205; type: cell-based; parameters: TGI: unit not given here; settings: Colon Cancer
Experimental: as §1

[38] = tested on: SNB-19; assay: NCI-60 cell line panel: SNB-19; type: cell-based; settings: CNS Cancer, total growth inhibition
Experimental: as §1

[39] = tested on: panel of 50 kinases; assay: 50-kinase panel; type: biochemical
[40] = tested on: M14; assay: NCI-60 cell line panel: M14; type: cell-based; settings: Melanoma
Experimental: as §1

[41] = tested on: IGROV1; assay: NCI-60 cell line panel: IGROV1; type: cell-based; settings: Ovarian Cancer, total growth inhibition
Experimental: as §1

[42] = tested on: MOLT-4; assay: NCI-60 cell line panel: MOLT-4; type: cell-based; parameters: TGI: unit not given here; settings: Leukemia, total growth inhibition
Experimental: as §1

[43] = tested on: U251; assay: NCI-60 cell line panel: U251; type: cell-based; parameters: TGI: unit not given here
Experimental: as §1

[44] = tested on: OVCAR-4; assay: NCI-60 cell line panel: OVCAR-4; type: cell-based; settings: Ovarian Cancer, total growth inhibition, in µM (unit assumed)
Experimental: as §1

[45] = tested on: HT29; assay: NCI-60 cell line panel: HT29; type: cell-based
Experimental: as §1

[46] = tested on: 786-0; assay: NCI-60 cell line panel: 786-0; type: cell-based; settings: Renal Cancer, total growth inhibition
Experimental: as §1

[47] = tested on: NCI-H522; assay: NCI-60 cell line panel: NCI-H522; type: cell-based; parameters: TGI: unit not given here; settings: Non-Small Cell Lung Cancer
Experimental: as §1

[48] = tested on: hepatocellular carcinoma cell lines; assay: Screening against HCC cell lines; type: cell-based
Experimental: The target compounds were tested against hepatocellular carcinoma cell lines. Compounds 1j. 13a. 13b. 13c. […] The mean inhibition percentage values are illustrated in Table 9.
(§2) Two HCC cell lines (Hep3B and HepG2) were used for screening the antiproliferative activity of the synthesized compounds. The cell lines were obtained from the European Collection of Cell Cultures (ECACC, UK) and maintained in Dulbecco's Modified Eagle Medium (DMEM: Sigma-Aldrich) supplemented with 10% fetal bovine serum (FBS) and 1% penicillin/streptomycin and incubated at 37° C. in a 5% CO2 air atmosphere. In addition, WI-38 normal cell line was used to investigate the safety of these compounds.
(§3) MTT assay was conducted to calculate the IC50 of the compounds following the reported procedure . Briefly, the cells were seeded in 96-well tissue culture plates with a density of 5×10^4 cells/well and incubated overnight at 37° C. in a 5% CO2 air atmosphere. After that, cells were treated with the newly synthesized compounds or sorafenib as a positive control. DMSO was used as a negative control. After 48 h, the media were aspirated, and replaced with media containing 0.5 mg/mL of MTT tetrazolium dye (Sigma-Aldrich) for 2 h at 37° C. Finally, the media were removed and 200 μL of DMSO was added to solubilize the formazan crystals. Absorbance was then measured at 570 nm using Varioskan Flash multimode plate reader (Thermo Scientific, Massachusetts, USA).

[49] = tested on: Hep3B; assay: MTT assay, Hep3B HCC cell line; type: cell-based; settings: Homo sapiens, 48 h, mean of triplicate assays ± SEM
Experimental: as §2
as §3, with “After that, cells were treated with the newly synthesized compounds or sorafenib as a positive control.” left out

[50] = tested on: HepG2; assay: MTT assay, HepG2 HCC cell line; type: cell-based; settings: Homo sapiens, 48 h, mean of triplicate assays ± SEM
Experimental: as §2
as §3, with “After that, cells were treated with the newly synthesized compounds or sorafenib as a positive control.” left out

Structure (SMILES): CNC(=O)c1cc(Oc2ccc(NC(=O)Nc3ccc(Cl)c(C(F)(F)F)c3)cc2)ccn1 [Sorafenib, reference compound]
- TGI [1]: 7.94 µM
- TGI [2]: 3.98 µM
- IC50 ([3]; Homo sapiens): 2 µM
- TGI ([3]; total growth inhibition): 3.16 µM
- TGI [4]: 12.59
- TGI [5]: 3.98 µM
- IC50 ([6]; Homo sapiens): 2 µM
- TGI ([6]; total growth inhibition, in µM (unit assumed)): 39.81
- TGI [7]: 3.98 µM
- IC50 ([8]; Homo sapiens): 2 µM
- TGI ([8]; total growth inhibition): 6.31
- IC50 ([9]; Homo sapiens): 2 µM
- TGI ([9]; total growth inhibition): 5.01 µM
- TGI [10]: 7.94
- TGI [11]: 5.01 µM
- TGI [12]: 7.94 µM
- TGI [13]: 5.01 µM
- TGI [14]: 10 µM
- TGI [15]: 6.31
- TGI [16]: 5.01 µM
- TGI [17]: 12.59
- IC50 ([18]; Homo sapiens): 2 µM
- TGI ([18]; total growth inhibition): 5.01 µM
- TGI [19]: 5.01 µM
- TGI [20]: 63.1 µM
- TGI [21]: 5.01 µM
- IC50 ([22]; Homo sapiens): 2 µM
- TGI ([22]; total growth inhibition): 3.16 µM
- IC50 ([23]; Homo sapiens): 3.98 µM
- TGI ([23]; total growth inhibition): 10 µM
- TGI [24]: 3.16 µM
- TGI [25]: 6.31 µM
- TGI [26]: 7.94 µM
- IC50 ([27]; Homo sapiens): 2 µM
- TGI ([27]; total growth inhibition): 5.01 µM
- TGI [28]: 2.51 µM
- TGI [29]: 19.95
- IC50 ([30]; Homo sapiens): 2 µM
- TGI ([30]; total growth inhibition): 5.01 µM
- TGI ([31]; total growth inhibition): 3.16 µM
- IC50 ([31]; Homo sapiens): 1.26 µM
- TGI [32]: 3.16 µM
- TGI [33]: 7.94 µM
- TGI [34]: 3.16 µM
- TGI [35]: 3.98 µM
- TGI [36]: 3.98
- TGI ([37]; total growth inhibition): 3.16
- IC50 ([37]; Homo sapiens): 2 µM
- TGI [38]: 3.98 µM
- number of kinases inhibited (more than 50% inhibition) [39]: 22 kinases
- IC50 ([40]; Homo sapiens): 2 µM
- TGI ([40]; total growth inhibition): 3.16 µM
- TGI [41]: 10 µM
- TGI [42]: 100
- TGI ([43]; CNS Cancer, total growth inhibition): 3.16
- IC50 ([43]; Homo sapiens, U-251, CNS Cancer): 2 µM
- TGI [44]: 25.12
- TGI ([45]; Colon Cancer, total growth inhibition): 5.01 µM
- IC50 ([45]; Homo sapiens, HT-29, Colon Cancer): 2 µM
- TGI [46]: 5.01 µM
- IC50 ([47]; Homo sapiens): 2 µM
- TGI ([47]; total growth inhibition): 5.01

- IC50 [49]: 3.87 ± 0.13 µM
- IC50 [50]: 3.68 ± 0.22 µM
Structure (SMILES): O=C(Nc1ccc(-c2cc(C(=O)Nc3ccccn3)c3ncccc3n2)cc1)Nc1ccc(F)c(C(F)(F)F)c1 [Compound 1j, 2-(4-(3-(4-Fluoro-3-(trifluoromethyl)phenyl)ureido)phenyl)-N-(pyridin-2-yl)-1,5-naphthyridine-4-carboxamide]
- inhibition activity against hepatocellular carcinoma cell lines compared with sorafenib [48]: higher inhibition activity than sorafenib

- IC50 [49]: 6.56 ± 0.31 µM
- IC50 [50]: 5.74 ± 0.2 µM
Structure (SMILES): CNC(=O)c1cc(-c2ccc(NC(=S)Nc3cc(C(F)(F)F)cc(C(F)(F)F)c3)cc2)nc2cccnc12 [Compound 1m, 2-(4-(3-(3,5-Bis(trifluoromethyl)phenyl)thioureido)phenyl)-N-methyl-1,5-naphthyridine-4-carboxamide]
- inhibition activity against hepatocellular carcinoma cell lines compared with sorafenib [48]: inhibition activity comparable to sorafenib

- IC50 [49]: 1.89 ± 0.18 µM
- IC50 [50]: 1.27 ± 0.14 µM
Structure (SMILES): CNC(=O)c1cc(-c2ccc(NC(=O)Nc3ccc(N4CCOCC4)c(C(F)(F)F)c3)cc2)nc2cccnc12 [Compound 13a, N-Methyl-2-(4-(3-(4-morpholino-3-(trifluoromethyl)phenyl)ureido)phenyl)-1,5-naphthyridine-4-carboxamide]
- inhibition activity against hepatocellular carcinoma cell lines compared with sorafenib [48]: higher inhibition activity than sorafenib
